Assay results published in patent US20150080337A1, “N-CYCLOALKYL-N-[(TRISUBSTITUTEDSILYLPHENYL)METHYLENE]-(THIO)CARBOXAMIDE DERIVATIVES” (BAYER CROPSCIENCE, priority 2012, published 2015).
One block for each compound: values may come before it.

Key:
[1] = log P by HPLC on reversed-phase column (C 18), EEC Directive 79/831 Annex V.A8; assay type: physicochemical; details: HPLC C 18, 40° C., 0.1% aqueous formic acid and acetonitrile, gradient 10% to 90% acetonitrile
Method: In table 1, the log P values were determined in accordance with EEC Directive 79/831 Annex V.A8 by HPLC (High Performance Liquid Chromatography) on a reversed-phase column (C 18), using the method described below:
Temperature: 40° C.; Mobile phases: 0.1% aqueous formic acid and acetonitrile; linear gradient from 10% acetonitrile to 90% acetonitrile.
Calibration was carried out using unbranched alkan-2-ones (comprising 3 to 16 carbon atoms) with known log P values (determination of the log P values by the retention times using linear interpolation between two successive alkanones). lambda-max-values were determined using UV-spectra from 200 nm to 400 nm and the peak values of the chromatographic signals.
In table 2, M+H (Apcl+) and log P are defined as for table 1.

[2] = system: Sphaerotheca fuliginea; test: In vivo test on Sphaerotheca fuliginea (cucurbits powdery mildew); details: 500 ppm of active ingredient; gherkin plants sprayed 24 hours before contamination; grading 12 days after contamination vs control plants
Method: The active ingredients tested are prepared by homogenization in a mixture of acetone/tween/DMSO and then diluted with water to obtain the desired active material concentration.
Gherkin plants (“Vert petit de Paris” variety), sown in starter cups on a 50/50 peat soil-pozzolana substrate and grown at 24° C., are treated at the Z11 cotyledon stage by spraying with the active ingredient prepared as described above. Plants, used as controls, are treated with the mixture of acetone/tween/DMSO/water not containing the active material.
After 24 hours, the plants are contaminated by spraying the cotyledons with an aqueous suspension of Sphaerotheca fuliginea spores (100 000 spores per mL). The spores are collected from infected plants. The contaminated gherkin plants are incubated at about 20° C. and at 70-80% relative humidity.
(§1) Grading (% of efficacy) is carried out 12 days after the contamination, in comparison with the control plants.
Under these conditions, good (at least 70%) to total protection is observed at a dose of 500 ppm of active ingredient with the following compounds from table A: […]

[3] = system: Puccinia recondita; test: In vivo test on Puccinia recondita (brown rust); details: 500 ppm of active ingredient; wheat plants sprayed 24 hours before contamination; grading 12 days after contamination vs control plants
Method: (§2) The active ingredients tested are prepared by homogenization in a mixture of acetone/tween/DMSO, and then diluted with water to obtain the desired active material concentration.
(§3) Wheat plants (“Scipion” variety), sown in starter cups on a 50/50 peat soil pozzolana substrate and grown at 22° C., are treated at the 1 leaf stage (10 cm height) by spraying with the active ingredient prepared as described above. Plants, used as controls, are treated with the mixture of acetone/tween/DMSO/water not containing the active material.
(§4) After 24 hours, the plants are contaminated by spraying the leaves with an aqueous suspension of Puccinia recondita spores (100 000 spores per mL). The spores are collected from an infected plant and are suspended in water containing 2.5 mL/L of Tween 80 at 10%. The contaminated wheat plants are incubated for 24 hours at 20° C. and at 100% relative humidity, and then for 10 days at 20° C. and at 70-80% relative humidity.
as §1
Under these conditions, good (at least 70%) to excellent (at least 90%) protection is observed at a dose of 500 ppm of active ingredient with the following compounds from table C: […]

[4] = system: Uromyces appendiculatus; test: In vivo preventive test on Uromyces appendiculatus (bean rust); details: 500 ppm of active ingredient; bean plants sprayed 24 hours before contamination; grading 11 days after contamination vs control plants
Method: as §2
Bean plants (“Saxa” variety), sown in starter cups on a 50/50 peat soil pozzolana substrate and grown at 24° C., are treated at the 2 leaf stage (9 cm height) by spraying with the active ingredient prepared as described above. Plants, used as controls, are treated with the mixture of acetone/tween/DMSO/water not containing the active material.
as §4, with “of Uromyces appendiculatus” for “of Puccinia recondita”, “spores (150” for “spores (100”, “from” for “from an”, “infected plants” for “infected plant”, “contaminated bean” for “contaminated wheat”
Grading (% of efficacy) is carried out 11 days after the contamination, in comparison with the control plants.
Under these conditions, good (at least 70%) to total protection is observed at a dose of 500 ppm of active ingredient with the following compounds from table G: […]

[5] = system: Septoria tritici; test: In vivo preventive test on Septoria tritici (wheat); details: 500 ppm of active ingredient; wheat plants sprayed 24 hours before contamination; grading 24 days after contamination vs control plants
Method: as §2, §3
After 24 hours, the plants are contaminated by spraying the leaves with an aqueous suspension of cryopreserved Septoria tritici spores (500 000 spores per mL). The contaminated wheat plants are incubated for 72 hours at 18° C. and at 100% relative humidity, and then for 21 days at 90% relative humidity.
Grading (% of efficacy) is carried out 24 days after the contamination, in comparison with the control plants.
Under these conditions, good (at least 70%) to total protection is observed at a dose of 500 ppm of active ingredient with the following compounds from table F: […]

[6] = Table 1, compounds of formula (I)
[7] = Table 2, compounds of formula (II)

Compound: Cc1nn(C)c(F)c1C(=O)N(Cc1ccccc1[Si](C)(C)c1ccccc1)C1CC1 [I.1, N-cyclopropyl-N-{2-[dimethyl(phenyl)silyl]benzyl}-5-fluoro-1,3-dimethyl-1H-pyrazole-4-carboxamide]
chromatographic logP [1, 6]: 4.24 | Efficacy [2]: 100% | Efficacy [3]: 92% | Efficacy [4]: 93% | Efficacy [5]: 96%

Compound: Cn1nc(C(F)F)c(C(=O)N(Cc2ccccc2[Si](C)(C)c2ccc(-c3ccccc3)cc2)C2CC2)c1F [I.13]
logP [1, 6]: 5.71

Compound: Cn1cc(C(=O)N(Cc2ccccc2[Si](C)(C)c2ccc(-c3ccccc3)cc2)C2CC2)c(C(F)F)n1 [I.14]
logP [1, 6]: 5.36

Compound: Cc1cc(C(=O)N(Cc2ccccc2[Si](C)(C)c2ccc(-c3ccccc3)cc2)C2CC2)c(C)o1 [I.15]
logP [1, 6]: 6.39

Compound: C[Si](C)(c1ccc(-c2ccccc2)cc1)c1ccccc1CN(C(=O)c1ccsc1I)C1CC1 [I.16]
logP [1, 6]: 6.39

Compound: Cc1nc(C(F)F)c(C(=O)N(Cc2ccccc2[Si](C)(C)c2ccc(-c3ccccc3)cc2)C2CC2)s1 [I.17]
logP [1, 6]: 5.93

Compound: Cn1cc(C(=O)N(Cc2ccccc2[Si](C)(C)c2ccc(-c3ccccc3)cc2)C2CC2)c(C(F)F)c1 [I.18]
logP [1, 6]: 5.68

Compound: C[Si](C)(c1ccc(Oc2ccccc2)cc1)c1ccccc1CN(C(=O)c1ccsc1I)C1CC1 [I.22]
logP [1, 6]: 6.36

Compound: Cc1cc(C(=O)N(Cc2ccccc2[Si](C)(C)c2cccc3ccccc23)C2CC2)c(C)o1 [I.27]
logP [1, 6]: 5.87

Compound: C[Si](C)(c1cccs1)c1ccccc1CN(C(=O)c1ccsc1I)C1CC1 [I.34]
logP [1, 6]: 5.28

Compound: Cc1cc(C(=O)N(Cc2ccccc2[Si](C)(C)c2cccs2)C2CC2)c(C)o1 [I.35]
logP [1, 6]: 5.19

Compound: C[Si](C)(c1ccccc1)c1ccccc1CNC1CC1 [II.1, N-{2-[dimethyl(phenyl)silyl]benzyl}cyclopropanamine]
chromatographic logP [1, 7]: 1.95

Compound: C[Si](C)(c1ccc(Cl)cc1)c1ccccc1CNC1CC1 [II.2, N-{2-[(4-chlorophenyl)(dimethyl)silyl]benzyl}cyclopropanamine]
chromatographic logP [1, 7]: 2.07

Compound: C[Si](C)(c1ccc(-c2ccccc2)cc1)c1ccccc1CNC1CC1 [II.3, N-{2-[biphenyl-4-yl(dimethyl)silyl]benzyl}cyclopropanamine]
chromatographic logP [1, 7]: 2.39

Compound: C[Si](C)(c1ccc(Oc2ccccc2)cc1)c1ccccc1CNC1CC1 [II.4, N-{2-[dimethyl(4-phenoxyphenyl)silyl]benzyl}cyclopropanamine]
chromatographic logP [1, 7]: 2.42

Compound: C[Si](C)(c1ccccc1CNC1CC1)c1cccc2ccccc12 [II.5, N-{2-[dimethyl(1-naphthyl)silyl]benzyl}cyclopropanamine]
chromatographic logP [1, 7]: 2.11

Compound: C[Si](C)(c1cccs1)c1ccccc1CNC1CC1 [II.6, N-{2-[dimethyl(2-thienyl)silyl]benzyl}cyclopropanamine]
chromatographic logP [1, 7]: 1.76

Compound: CC1CC1NCc1ccccc1[Si](C)(C)c1ccccc1 (stereo not shown) [II.7]
logP [1, 7]: 2.70

Compound: COc1ccc([Si](C)(C)c2ccccc2CNC2CC2)cn1 [II.8, N-{2-[(6-methoxypyridin-3-yl)(dimethyl)silyl]benzyl}cyclopropanamine]
chromatographic logP [1, 7]: 1.86

Second part, led by results:

logP [1, 6]: 4.81
Compound: CCc1nn(C)c(F)c1C(=O)N(Cc1ccccc1[Si](C)(C)c1ccccc1)C1CC1 [I.2]
Efficacy [2]: 100% | Efficacy [3]: 83%

logP [1, 6]: 4.41
Compound: Cn1cc(C(=O)N(Cc2ccccc2[Si](C)(C)c2ccccc2)C2CC2)c(C(F)F)n1 [I.3]
Efficacy [2]: 93% | Efficacy [3]: 83% | Efficacy [4]: 93% | Efficacy [5]: 80%

logP [1, 6]: 4.78
Compound: Cn1nc(C(F)F)c(C(=O)N(Cc2ccccc2[Si](C)(C)c2ccccc2)C2CC2)c1F [I.4]
Efficacy [2]: 100% | Efficacy [3]: 92% | Efficacy [4]: 100% | Efficacy [5]: 100%

logP [1, 6]: 4.88
Compound: Cn1nc(C(F)F)c(C(=O)N(Cc2ccccc2[Si](C)(C)c2ccccc2)C2CC2)c1Cl [I.5]
Efficacy [2]: 79% | Efficacy [3]: 83%

logP [1, 6]: 5.19
Compound: Cn1nc(C(F)F)c(C(=O)N(Cc2ccccc2[Si](C)(C)c2ccc(Cl)cc2)C2CC2)c1F [I.6]
Efficacy [2]: 100% | Efficacy [3]: 94% | Efficacy [4]: 100%

logP [1, 6]: 4.81
Compound: Cn1cc(C(=O)N(Cc2ccccc2[Si](C)(C)c2ccc(Cl)cc2)C2CC2)c(C(F)F)n1 [I.7]
Efficacy [2]: 70% | Efficacy [3]: 78% | Efficacy [4]: 86%

logP [1, 6]: 5.78
Compound: Cc1cc(C(=O)N(Cc2ccccc2[Si](C)(C)c2ccc(Cl)cc2)C2CC2)c(C)o1 [I.9]

logP [1, 6]: 5.19
Compound: Cn1cc(C(=O)N(Cc2ccccc2[Si](C)(C)c2ccc(Cl)cc2)C2CC2)c(C(F)F)c1 [I.10]

logP [1, 6]: 5.81
Compound: C[Si](C)(c1ccc(Cl)cc1)c1ccccc1CN(C(=O)c1ccsc1I)C1CC1 [I.11]

logP [1, 6]: 5.31
Compound: Cc1nc(C(F)F)c(C(=O)N(Cc2ccccc2[Si](C)(C)c2ccc(Cl)cc2)C2CC2)s1 [I.12]

logP [1, 6]: 6.33
Compound: Cc1cc(C(=O)N(Cc2ccccc2[Si](C)(C)c2ccc(Oc3ccccc3)cc2)C2CC2)c(C)o1 [I.21]

logP [1, 6]: 5.62
Compound: Cn1cc(C(=O)N(Cc2ccccc2[Si](C)(C)c2ccc(Oc3ccccc3)cc2)C2CC2)c(C(F)F)c1 [I.23]

logP [1, 6]: 5.81
Compound: Cc1nc(C(F)F)c(C(=O)N(Cc2ccccc2[Si](C)(C)c2ccc(Oc3ccccc3)cc2)C2CC2)s1 [I.24]

logP [1, 6]: 4.83
Compound: Cn1cc(C(=O)N(Cc2ccccc2[Si](C)(C)c2cccc3ccccc23)C2CC2)c(C(F)F)n1 [I.26]

logP [1, 6]: 5.19
Compound: Cn1cc(C(=O)N(Cc2ccccc2[Si](C)(C)c2cccc3ccccc23)C2CC2)c(C(F)F)c1 [I.28]

logP [1, 6]: 5.31
Compound: Cc1nc(C(F)F)c(C(=O)N(Cc2ccccc2[Si](C)(C)c2cccc3ccccc23)C2CC2)s1 [I.30]

logP [1, 6]: 4.72
Compound: Cn1nc(C(F)F)c(C(=O)N(Cc2ccccc2[Si](C)(C)c2cccs2)C2CC2)c1Cl [I.32]
Efficacy [4]: 71%

logP [1, 6]: 4.61
Compound: Cn1nc(C(F)F)c(C(=O)N(Cc2ccccc2[Si](C)(C)c2cccs2)C2CC2)c1F [I.33]
Efficacy [2]: 100% | Efficacy [4]: 100% | Efficacy [5]: 100%

logP [1, 6]: 4.74
Compound: Cc1nc(C(F)F)c(C(=O)N(Cc2ccccc2[Si](C)(C)c2cccs2)C2CC2)s1 [I.36]

logP [1, 6]: 4.59
Compound: Cn1cc(C(=O)N(Cc2ccccc2[Si](C)(C)c2cccs2)C2CC2)c(C(F)F)c1 [I.37]

logP [1, 6]: 4.13
Compound: COc1ccc([Si](C)(C)c2ccccc2CN(C(=O)c2c(C(F)F)nn(C)c2F)C2CC2)cn1 [I.38]

logP [1, 6]: 4.25
Compound: COc1ccc([Si](C)(C)c2ccccc2CN(C(=O)c2c(C(F)F)nn(C)c2Cl)C2CC2)cn1 [I.39]
